In US3950360A, “Antibiotic substances” (priority 1972, dated 1976):
Like-named read-outs stand apart in the source and are kept apart here.

Columns and labels:
two-spotted spider mites = experiment: Test Example 1: acaricidal activity, dipping of kidneybean leaves infested with two-spotted spider mites; format: in vivo; details: for activity at 1.25 ppm: 1.25 p.p.m.; for activity at 2.5 ppm: 2.5 p.p.m.; for activity at 5 ppm / activity at 10 ppm / activity at 20 ppm: read-out: acaricidal activity (%); for activity at 0.08 ppm: 0.08 p.p.m.; for activity at 0.16 ppm: 0.16 p.p.m.; for activity at 0.31 ppm: 0.31 p.p.m.; for activity at 0.63 ppm: 0.63 p.p.m.; for activity at 0.04 ppm: 0.04 p.p.m.
[1] = Alcohol solution, neutralization titration method (pKa); format: physicochemical
Text: |Alcohol solution, |neutralization pH ranging |titration method

Solubility in solvents = format: physicochemical; details: "do." = same as A1
citrus red mites = experiment: Test Example 3: acaricidal activity, spraying of orange leaves infested with citrus red mites; format: in vivo; details: after 24 hours
Protocol: This chemical solution was sprayed to orange leaves infested with citrus red mites, and the acaricidal activity (%) after 24 hours was calculated.

European red mites = experiment: Test Example 2: spraying of apple leaves infested with European red mites; format: in vivo; details: 5 days after spraying, non-treated 88/102
Protocol: An emulsifiable concentrate containing 20% of a of a crude B-41, which had been obtained by purifying two times according to alumina column chromatography the brown oily substance prepared in Example 1, was diluted to a given concentration to prepare a chemical solution. This chemical solution was sprayed to apple leaves infested with about 100 European red mites and, 5 days thereafter, the number of living mites was counted.

rice stem borer = experiment: Test Example 5: mortality of rice stem borer larvae in rice plants; format: in vivo, rice stem borer of 1st generation; details: 120 h, read-out: mortality (%) of the larvae
Protocol: Eggs of rice stem borer of 1st generation were inoculated to rice plants (variety "Kinmaze"), which had been planted in 200 cm^2 pots, and were hatched to allow the larvae invade the stems. Subsequently, a wettable powder containing 40% of a crude B-41, which had been obtained by purifying two times according to alumina column chromatography the brown oily substance prepared in Example 1, was diluted to a given concentration and then sprayed to the plants in a proportion of 100 cc. per pot. 5 Days thereafter, the stems were split to examine the alive and dead of the larvae, and the mortality (%) of the larvae was calculated.

pKa (No pKa at pH ranging from 2 to 12) [1] | Compound | activity at 1.25 ppm (two-spotted spider mites; after 24 hours) | activity at 2.5 ppm (two-spotted spider mites; after 24 hours) | activity at 5 ppm (two-spotted spider mites; 5 p.p.m., after 24 hours) | activity at 10 ppm (two-spotted spider mites; 10 p.p.m., after 24 hours) | activity at 20 ppm (two-spotted spider mites; 20 p.p.m., after 24 hours) | activity at 0.08 ppm (two-spotted spider mites; after 24 hours) | activity at 0.16 ppm (two-spotted spider mites; after 24 hours) | activity at 0.31 ppm (two-spotted spider mites; after 24 hours) | activity at 0.63 ppm (two-spotted spider mites; after 24 hours) | activity at 0.04 ppm (two-spotted spider mites; after 24 hours) | further results
No pKa | COC1CC2(O)C(CO)=CC=CC(C)CC(C)=CCC3CC(CC4(CCC(C)C(C)O4)O3)OC(=O)C2C=C1C (stereo not drawn) [A1] | 0% | 19.9% | 100% | 100% | 100% | – | – | – | – | – | Solubility in organic solvents ("easily soluble in n-hexane, benzene, acetone, ethanol and chloroform") (Solubility in solvents; n-hexane, benzene, acetone, ethanol and chloroform): easily; Solubility in water ("Difficultly soluble in water") (Solubility in solvents; water): Difficultly
– | COC1C(C)=CC2C(=O)OC3CC(CC=C(C)CC(C)C=CC=C4COC1C42O)OC1(CCC(C)C(C)O1)C3 (stereo not drawn) [B2] | 100% | 100% | 100% | 100% | 100% | 0% | 16.6% | 80.5% | 100% | – | pH at which crystallization took place in the titration ([1]; alcohol solution, neutralization titration): ~8.7
No pKa | CC1=CCC2CC(CC3(CCC(C)C(C)O3)O2)OC(=O)C2C=C(COC(=O)c3ccc[nH]3)C(O)C3OCC(=CC=CC(C)C1)C23O (stereo not drawn) [C1] | 100% | 100% | 100% | 100% | 100% | 100% | 100% | 100% | 100% | 51.8% | –
– | CCC1OC2(CCC1C)CC1CC(CC=C(C)CC(C)C=CC=C3COC4C(O)C(C)=CC(C(=O)O1)C34O)O2 (stereo not drawn) [A4] | 100% | 100% | 100% | 100% | 100% | 100% | 100% | 100% | 100% | 21.3% | –
– | OC(c1ccc(Cl)cc1)(c1ccc(Cl)cc1)C(Cl)(Cl)Cl [Kelthane, 1,1-Bis-(p-chlorophenyl)-2,2,2-trichloroethanol] | – | – | – | – | – | – | – | – | – | – | activity at 7 ppm (citrus red mites; 7 p.p.m.): 30.8%; activity at 20 ppm (citrus red mites; 20 p.p.m.): 90.9%; activity at 5 ppm (two-spotted spider mites; 24 h): 0%; activity at 10 ppm (two-spotted spider mites; 24 h): 56.4%; activity at 20 ppm (two-spotted spider mites; 24 h): 100%; number of mites living at counting / before spraying (given as fraction) (European red mites; 50 p.m.m. [sic]): 56/128; number of mites living at counting / before spraying (given as fraction) (European red mites; 100 p.p.m.): 8/103; number of mites living at counting / before spraying (given as fraction) (European red mites; 200 p.p.m.): 0/97
– | COP(=O)(OC)OC=C(Cl)Cl [Reference **] | – | – | – | – | – | – | – | – | – | – | mortality at 50 ppm (rice stem borer): 25.5%; mortality at 100 ppm (rice stem borer): 82.1%
do. | CC1=CCC2CC(CC3(CCC(C)C(C)O3)O2)OC(=O)C2C=C(C)C(O)C3OCC(=CC=CC(C)C1)C23O (stereo not drawn) [A3] | 100% | 100% | 100% | 100% | 100% | 100% | 98.2% | 100% | 100% | 15.2% | –
do. | CCC1OC2(CCC1C)CC1CC(CC=C(C)CC(C)C=CC=C3COC4C(O)C(COC(=O)c5ccc[nH]5)=CC(C(=O)O1)C34O)O2 (stereo not drawn) [C2] | 100% | 100% | 100% | 100% | 100% | 100% | 100% | 100% | 100% | 97.3% | –
– | CCC1OC2(CCC1C)CC1CC(CC=C(C)CC(C)C=CC=C3COC4C(OC)C(C)=CC(C(=O)O1)C34O)O2 (stereo not drawn) [B3] | 100% | 100% | 100% | 100% | 100% | 18.3% | 74.1% | 100% | 100% | 0% | –
